We go through five compounds from patent US20020045574A1, “Glycopeptide antibacterial compounds and methods of using same” (priority 2000, published 2002).

Experiment [1] deals with methicillin-sensitive Staphylococcus aureus (MSSA) strain MB2985. The settings on record: due to binding of the antibiotic; cited from earlier work.
The test system of a further experiment is VISA/MRSA CL 5705. The experiment can be described thus: Strain antibiotic susceptibility phenotype (MIC interpretive standards). Conditions: VISA/MRSA CL 5705 (Mu 3). Type of experiment: cell-based, S. aureus. An excerpt: (§1) The test panel currently includes eight enterococci and 13 staphylococci, which are selected based upon their antibiotic susceptibility profiles. The methicillin-sensitive Staphylococcus aureus (MSSA) strain MB2985 (Smith isolate) is used to assesses the potential for serum protein binding of the compounds. The paired Gram-negative strains ASP #49 (envA−) and ASP #50 (envA+) (M. Salvatore/N. Lee) are included to judge membrane effects. Table 1 presents a detailed description of the strains included in the panel, including some of the sources of the strains of bacteria.

A further experiment relates to VISA/MRSA CL 5706. The description is as above. Type of experiment: cell-based, S. aureus. The settings on record: VISA/MRSA CL 5706 (Mu 50).
Excerpt: as §1

In the next experiment the test system is MSSA MB2985. Described as above. Type of experiment: cell-based, Staphylococcus aureus.
Excerpt: as §1

Another experiment relates to MRSA CL 3033. The experiment is described as above. Type of experiment: cell-based, Staphylococcus aureus.
Excerpt: as §1

In the next experiment the test system is MRSA COL. Described as above. Type of experiment: cell-based, Staphylococcus aureus.
Excerpt: as §1

Experiment [2] concerns E. faecium CL 5053 (VanA). Described as above. Type of experiment: cell-based.
Excerpt: as §1

Experiment [3] concerns E. faecalis CL 4877 (VanB). Described as above. Type of experiment: cell-based.
Excerpt: as §1

Experiment [4] relates to E. faecalis CL 5244 (VanB). Described as above. Type of experiment: cell-based.
Excerpt: as §1

A further experiment deals with E. faecalis MB2864. Described as above. Type of experiment: cell-based.
Excerpt: as §1

The next experiment concerns E. faecium RLA1. The experiment is described as above. Type of experiment: cell-based.
Excerpt: as §1

For experiment [5], the system named is E. faecium CL 4931 (VanA). The description is as above. Type of experiment: cell-based.
Excerpt: as §1

The test system of experiment [6] is E. gallinarum CL 4886 (VanC). The experiment is described as above. Type of experiment: cell-based.
Excerpt: as §1

Experiment [7] has as its system E. faecium CL 5242 (VanA). The description is as above. Type of experiment: cell-based.
Excerpt: as §1

The test system of another experiment is MRCNS (S. hom.) CL 546. Described as above. Type of experiment: cell-based.
Excerpt: as §1

The next experiment has as its system MRCNS (S. epi.) CL 3069. The description is as above. Type of experiment: cell-based.
Excerpt: as §1

The test system of a further experiment is MRCNS (S. haem.) CL 171. The experiment is described as above. Type of experiment: cell-based.
Excerpt: as §1

Another experiment deals with MRCNS (S. haem.) CL 202. The description is as above. Type of experiment: cell-based.
Excerpt: as §1

The test system of a further experiment is MRCNS (S. hom.) CL 227. The description is as above. Type of experiment: cell-based.
Excerpt: as §1

On to `CCSC1=C(C(=O)O)N2C(=O)[C@H]([C@@H](C)O)[C@H]2S1` [Schering 29482], for which the “activity in the presence of Human Serum Albumin or Fraction V” value in experiment [1] is on record as “reduced activity”.

As to `CC1(C)S[C@@H]2[C@H](NC(=O)[C@H](N)c3ccccc3)C(=O)N2[C@H]1C(=O)O` [Amp, ampicillin], the “Phenotype Amp” value with VISA/MRSA CL 5705 is recorded as “R (≧0.5)”; in the experiment with VISA/MRSA CL 5706 it was “R (≧0.5)”; in the experiment with MSSA MB2985 it was “S (≦0.25)”; with MRSA CL 3033, “R (≧0.5)”; in the experiment with MRSA COL, “R (≧0.5)”; in experiment [2], “R (≧16)”. The “Phenotype Amp” value in [3] is recorded as “S (≦8)”; in [4], “S (≦8)”; with E. faecalis MB2864 it was “S (≦8)”; in the experiment with E. faecium RLA1, “R (≧16)”; in experiment [5] it was “R (≧16)”; in experiment [6], “S (≦8)”. For the same compound, in [7], the “Phenotype Amp” value is recorded as “R (≧16)”.

Regarding `CN[C@H](CC(C)C)C(=O)N[C@H]1C(=O)N[C@@H](CC(N)=O)C(=O)N[C@H]2C(=O)N[C@H]3C(=O)N[C@H](C(=O)N[C@H](C(=O)O)c4cc(O)cc(O)c4-c4cc3ccc4O)[C@H](O)c3ccc(c(Cl)c3)Oc3cc2cc(c3O[C@@H]2O[C@H](CO)[C@@H](O)[C@H](O)[C@H]2O[C@H]2C[C@](C)(N)[C@H](O)[C@H](C)O2)Oc2ccc(cc2Cl)[C@H]1O` [Van, vancomycin], the “Phenotype Van” value with VISA/MRSA CL 5705 is recorded as “S (≦4)”; in the experiment on VISA/MRSA CL 5706, “I (8-16)”; in the experiment on MSSA MB2985, “S (≦4)”; with MRSA CL 3033, “S (≦4)”; with MRSA COL it was “S (≦4)”; in the experiment with MRCNS (S. hom.) CL 546, “S (≦4)”. Further, the “Phenotype Van” value in experiment [2] is on record as “R (≧32)”; with MRCNS (S. epi.) CL 3069, “S (≦4)”; in [3], “R (≧32)”; in experiment [4] it was “R (≧32)”; in the experiment on E. faecalis MB2864, “S (≦4)”; with E. faecium RLA1, “S (≦4)”. Also, the “Phenotype Van” value in [5] was “R (≧32)”; in the experiment on MRCNS (S. haem.) CL 171, “S (≦4)”; in [6], “I (8-16)”; in [7], “R (≧32)”; in the experiment on MRCNS (S. haem.) CL 202, “S (≦4)”; in the experiment with MRCNS (S. hom.) CL 227, “S (≦4)”.

In the case of `C[C@@H](O)[C@H]1C(=O)N2C(C(=O)O)=C(SCCN=CN)C[C@H]12` [Ipm, imipenem], the “Phenotype Ipm” value with VISA/MRSA CL 5705 is “R (≧16)”; in the experiment on VISA/MRSA CL 5706 it was “R (≧16)”; in the experiment on MSSA MB2985, “S (≦4)”; in the experiment on MRSA CL 3033 it was “R (≧16)”; in the experiment on MRSA COL, “R (≧16)”; with MRCNS (S. hom.) CL 546, “R (≧16)”. Further, the “Phenotype Ipm” value with MRCNS (S. epi.) CL 3069, in the experiment with MRCNS (S. haem.) CL 171, with MRCNS (S. haem.) CL 202 and with MRCNS (S. hom.) CL 227 was “R (≧16)” in each case.

Consider gentamicin, for which the “Phenotype Gent” value in the experiment on VISA/MRSA CL 5705 was “R (≧16)”; in the experiment on VISA/MRSA CL 5706, “R (≧16)”; in the experiment with MSSA MB2985, “S (≦4)”; in the experiment with MRSA COL it was “S (≦4)”; in [2], “R (>500)”; in experiment [3], “R (>500)”. Also, the “Phenotype Gent” value in experiment [4] is “S (≦500)”; with E. faecalis MB2864 it was “S (≦500)”; in the experiment with E. faecium RLA1 it was “S (≦500)”; in [5] it was “R (>500)”; in experiment [6], “R (>500)”; in [7], “R (>500)”.
